Experimental data: US10781184B2, “Substituted benzazinones as antibacterial compounds” (GlaxoSmithKline Intellectual Property Development Limited, priority 2015, dated 2020)
≈ marks a conversion by molar mass, not a printed value.

Legend:
P. aeruginosa PA01 = assay: Minimum Inhibitory Concentration Assay (broth microdilution, CLSI); format: cell-based; settings: Pseudomonas aeruginosa; strain PA01, broth microdilution; read-out: P. aeruginosa PA01 MIC
Summary of the method: (§1)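 CLSI broth microdilution for aerobic bacteria; compounds serially diluted in the recommended broth over a final range of 0.125–128 mcg/mL, final DMSO below 1%. MIC read as the lowest concentration inhibiting visible growth.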

E. coli 7623 = assay: as above; format: cell-based; settings: Escherichia coli; strain 7623, broth microdilution; read-out: E. coli 7623 MIC
Summary of the method: as §1

K. pneumoniae 1161486 = assay: as above; format: cell-based; settings: Klebsiella pneumoniae; strain 1161486, broth microdilution; read-out: K. pneumoniae 1161486 MIC
Summary of the method: as §1

Untagged E. coli LpxC = target: T1, Untagged E. coli LpxC (Escherichia coli, UniProt P0A725); assay: E. coli Enzyme Assay (LpxC deacetylase, RapidFire MS); format: biochemical; settings: read-out: E. coli plC50 (converted)
T1 construct: Untagged E. Coli LpxC 1-300 was expressed in E. Coli; made in house; host or cells: E. coli
T1 sequence (P0A725 1-300): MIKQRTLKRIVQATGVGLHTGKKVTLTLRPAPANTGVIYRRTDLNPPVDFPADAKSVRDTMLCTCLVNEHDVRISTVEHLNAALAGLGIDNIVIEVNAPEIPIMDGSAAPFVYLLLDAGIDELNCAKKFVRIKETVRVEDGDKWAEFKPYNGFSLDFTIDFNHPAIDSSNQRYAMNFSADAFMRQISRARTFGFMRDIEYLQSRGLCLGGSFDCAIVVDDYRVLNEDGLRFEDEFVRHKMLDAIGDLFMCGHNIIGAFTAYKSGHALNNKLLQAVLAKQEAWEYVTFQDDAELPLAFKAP
Description: Untagged E. Coli LpxC 1-300 was expressed in E. Coli and purified with NiNTA Agarose, Superdex 200 and Mono Q columns. UDP-3-O—(R-3-hydroxymyristoyl)-N-Acetylglucosamine Substrate was obtained through a custom synthesis from Alberta Innovates Technology Futures. Method Untagged E. coli LpxC is a deacetylase, which can remove an acetyl-group from UDP-3-O—(R-3-hydroxymyristoyl)-N-Acetylglucosamine (m/z 832.1-385) to result in a product (m/z 790.3→385) that is 42 Daltons less than the original acetylated substrate. Direct detection of the deacetylated product and acetylated substrate was accomplished through an Agilent RapidFire v. 3.4/Sciex 4000 Q-Trap RF-MS instrument. […] Following a 30 minute preincubation, 20 μL of 2× substrate [2 μM final concentration; 39.984 mL buffer+16 μL of UDP-3-O—(R-3-hydroxymyristoyl)-N-Acetylglucosamine (at 10 mM Stock)] was added and incubated for 25 minutes. The reaction was quenched by the addition of 10 μL of 1N HCl. The plate was loaded onto the Agilent RapidFire v. 3.4/Sciex 4000 Q-Trap RF-MS instrument for analysis [C4 SPE cartridge, 2 mM ammonium acetate in 100 v/v water as the aqueous eluent and 5 mM ammonium acetate in 25% v/v/25% v/v/50% v/v acetonitrile/acetone/water as the organic eluent]. For dose response experiments % conversion were determined from the substrate and product extracted ion chromatogram (XIC) areas and normalized to the assay high and low controls. Normalized data were fit by ActivityBase XE using the equation y=a+(b−a)/(1+(10^x/10^c)^d), where a is the minimum % activity, b is the maximum % activity, c is the pIC50, and d is the Hill slope. ^1Langsdorf, Erik F. et al. Screening for Antibacterial Inhibitors of the UDP-3-O—(R-3-Hydroxymyristoyl)-N-Acetylglucosamine Deacetylase (LpxC) Using a High-Throughput Mass Spectroscopy Assay. See, J. Biomol. Screen. 2010, 15, 52-61. Minimum Inhibitory Concentration Assay

[1] = target: T2, Untagged Pseudomonas LpxC (Pseudomonas aeruginosa, UniProt P47205); assay: P. aeruginosa Enzymatic Assay (LpxC deacetylase, RapidFire MS); format: biochemical
T2 construct: made in house; host or cells: E. coli
T2 sequence (P47205 1-303): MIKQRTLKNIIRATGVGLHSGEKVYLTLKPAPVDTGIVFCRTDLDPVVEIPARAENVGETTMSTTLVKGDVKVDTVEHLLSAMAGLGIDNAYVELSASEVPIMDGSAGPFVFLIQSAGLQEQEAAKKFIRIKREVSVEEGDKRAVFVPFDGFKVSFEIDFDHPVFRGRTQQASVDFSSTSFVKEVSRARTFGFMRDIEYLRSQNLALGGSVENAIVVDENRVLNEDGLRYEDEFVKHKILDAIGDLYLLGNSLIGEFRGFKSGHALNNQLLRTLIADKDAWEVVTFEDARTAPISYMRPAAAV
Description: P. aeruginosa Enzymatic Assay
Untagged Pseudomonas LpxC was expressed in E. coli from Psuedomonas aeruginosa PAO1 and purified from Q-Sepharose 1 and Q-Sepharose 2 columns. UDP-3-O—(R-3-hydroxymyristoyl)-N-Acetylglucosamine Substrate was obtained through a custom synthesis from Alberta Innovates Technology Futures.
Untagged Pseudomonas LpxC is a deacetylase, which can remove an acetyl-group from UDP-3-O—(R-3-hydroxymyristoyl)-N-Acetylglucosamine to result in a product that is 42 Daltons less than the original acetylated substrate. Direct detection of the deactylated product and acetylated substrate is accomplished through an Agilent RapidFire v. 3.4/Sciex 4000 Q-Trap RF-MS instrument.
Following a 30 minute incubation, 20 μL of 2× substrate [7.680 buffer+5 uL of UDP-3-O—(R-3-hydroxymyristoyl)-N-Acetylglucosamine (at 10 mM Stock)] was added and incubated for 25 minutes. 10 uL of 1N HCl was added to quench the reaction. The plate was loaded onto the Agilent RapidFire v. 3.4/Sciex 4000 Q-Trap RF-MS instrument for analysis, using a C4 SPE cartridge and 2 mM ammonium acetate in 100 v/v water as the aqueous eluent and 5 mM ammonium acetate in […] as the organic eluent. For dose response experiments, % conversion were determined from the substrate and product analytes and normalized data were fit by ABASE/XC50 using the equation y=a+(b−a)/(1+(10^x/10^c)^d), where a is the minimum % activity, b is the maximum % activity, c is the pIC50, and d is the Hill slope. ^1Langsdorf, Erik F. et al. Screening for Antibacterial Inhibitors of the UDP-3-O—(R-3-Hydroxymyristoyl)-N-Acetylglucosamine Deacetylase (LpxC) Using a High-Throughput Mass

Compound | MIC (P. aeruginosa PA01) [µg/mL] | MIC (E. coli 7623) [µg/mL] | MIC (K. pneumoniae 1161486) [µg/mL] | IC50 (Untagged E. coli LpxC) [nM] | IC50 [1] [nM]
COc1ccc(-c2ccc3c(=O)n(CC[C@](C)(C(=O)NO)S(C)(=O)=O)cnc3c2)cc1 [Example 3, (R)—N-hydroxy-4-(7-(4-methoxyphenyl)-4-oxoquinazolin-3(4H)-yl)-2-methyl-2-(methylsulfonyl)butanamide] | 2 (≈ 4.49 µM) | 0.06 (≈ 0.135 µM) | 0.5 (≈ 1.12 µM) | 1 | 
Cc1ccc(-c2cc(F)c3c(=O)n(CC[C@](C)(C(=O)NO)S(C)(=O)=O)cnc3c2)cc1 [Example 17, (2R)-4-[5-fluoro-7-(4-methylphenyl)-4-oxo-3,4-dihydroquinazolin-3-yl]-N-hydroxy-2-methanesulfonyl-2-methylbutanamide] | 16 (≈ 35.8 µM) | 0.25 (≈ 0.559 µM) | 1 (≈ 2.23 µM) |  | 1
C[C@@](CCn1cnc2cc(-c3ccc(CCN4CCOCC4)cc3)ccc2c1=O)(C(=O)NO)S(C)(=O)=O [Example 42, (2R)—N-hydroxy-2-methanesulfonyl-2-methyl-4-(7-{4-[2-(morpholin-4-yl)ethyl]phenyl}-4-oxo-3,4-dihydroquinazolin-3-yl)butanamide] | 2 (≈ 3.78 µM) | 0.25 (≈ 0.473 µM) | 0.5 (≈ 0.946 µM) | 1 | 
C[C@@](CCn1ccc2cc(-c3ccc(CN4CCOCC4)cc3)ccc2c1=O)(C(=O)NO)S(C)(=O)=O [Example 64, (2R)—N-hydroxy-2-methanesulfonyl-2-methyl-4-(6-{4-[(morpholin-4-yl)methyl]phenyl}-1-oxo-1,2-dihydroisoquinolin-2-yl)butanamide] | 0.5 (≈ 0.973 µM) | < 0.03 | 0.25 (≈ 0.487 µM) | 1 | 
COC(C)(C)CNCc1ccc(-c2ccc3c(=O)n(CC[C@](C)(C(=O)NO)S(C)(=O)=O)ccc3c2)c(F)c1 [Example 68, (2R)-4-[6-(2-fluoro-4-{[(2-methoxy-2-methylpropyl)amino]methyl}phenyl)-1-oxo-1,2-dihydroisoquinolin-2-yl]-N-hydroxy-2-methanesulfonyl-2-methylbutanamide] | 2 (≈ 3.65 µM) | 0.125 (≈ 0.228 µM) | 0.5 (≈ 0.913 µM) | 1 | 
CN(C)Cc1ccc(-c2ccc3c(=O)n(CC[C@](C)(C(=O)NO)S(C)(=O)=O)ccc3c2)c(F)c1F [Example 69, (2R)-4-(6-{4-[(dimethylamino)methyl]-2,3-difluorophenyl}-1-oxo-1,2-dihydroisoquinolin-2-yl)-N-hydroxy-2-methanesulfonyl-2-methylbutanamide] | 1 (≈ 1.97 µM) | 0.125 (≈ 0.246 µM) | 1 (≈ 1.97 µM) | 1 | 
CCOCCNCc1ccc(-c2ccc3c(=O)n(CC[C@](C)(C(=O)NO)S(C)(=O)=O)ccc3c2)c(F)c1 [Example 72, (2R)-4-[6-(4-{[(2-ethoxyethyl)amino]methyl}-2-fluorophenyl)-1-oxo-1,2-dihydroisoquinolin-2-yl]-N-hydroxy-2-methanesulfonyl-2-methylbutanamide] | 1 (≈ 1.87 µM) | 0.125 (≈ 0.234 µM) | 0.25 (≈ 0.468 µM) | 1 | 
C[C@@](CCn1ccc2cc(-c3ccc(CNC4CC4)cc3)ccc2c1=O)(C(=O)NO)S(C)(=O)=O [Example 75, (2R)-4-(6-{4-[(cyclopropylamino)methyl]phenyl}-1-oxo-1,2-dihydroisoquinolin-2-yl)-N-hydroxy-2-methanesulfonyl-2-methylbutanamide] | 0.25 (≈ 0.517 µM) | 0.06 (≈ 0.124 µM) | 0.063 (≈ 0.13 µM) |  | 1
C[C@@](CCN1CCc2cc(-c3ccccc3F)ccc2C1=O)(C(=O)NO)S(C)(=O)=O [Example 91, (2R)-4-[6-(2-fluorophenyl)-1-oxo-1,2,3,4-tetrahydroisoquinolin-2-yl]-N-hydroxy-2-methanesulfonyl-2-methylbutanamide] | 4 (≈ 9.21 µM) | 0.5 (≈ 1.15 µM) | 0.5 (≈ 1.15 µM) |  | 1
